Laboratory results: patent US9889146B2, “Benzoxaborole compounds and uses thereof” (priority 2012, dated 2018)
Values after ≈ are worked out from the molar mass of the structure shown. Where two headings read alike, the source gives them in different places.

Tests used:
Assay type in all cases: cell-based
[1] = system: E. coli isolates from subject E. coli 1; assay: MIC in M9 minimal media of clinical isolates, subject E. coli 1; conditions: Escherichia coli
Description: The E. coli and P. mirabilis strains were cultured on Trypticase Soy Agar/5% blood plates (Becton Dickinson BBL), in cation adjusted Mueller-Hinton II Broth, or in M9 minimal salts (Becton Dickinson) broth containing 0.4% glucose and 200 uM MgSO4. L-Norvaline (Sigma-Aldrich) was prepared at a concentration of 6.4 mg/ml in […], in a final volume of approx 0.5 ml, and stored at −20° C. until required.
Minimum inhibitory concentrations (MICs) were determined using the CLSI (Clinical and Laboratory Standards Institute, formerly NCCLS) recommended broth microdilution methodology [NCCLS, 2003] using defined media.
Throughout this study E. coli and P. mirabilis strains were cultured on Trypticase Soy Agar/5% blood plates, on M9 salts/1.2% Bacto Agar plates, in Cation Adjusted Mueller-Hinton II Broth (CAMHB), or in M9 Minimal Salt Broth containing 0.4% glucose and 200 μM MgSO4. GSK2251052 and norvaline were prepared at a concentration of 6.4 mg/mL (free base) in 100% DMSO and 100% water respectively, aliquoted in 0.5 mL individual stocks, and stored at −20° C. until required.
Minimum inhibitory concentrations (MICs) were determined for each organism using the CLSI (Clinical and Laboratory Standards Institute) recommended broth microdilution methodology [CLSI, 2009].
Strains tested are detailed in Table 15. MICs for norvaline and GSK2251052 could only be determined for E. coli isolates from subject E. coli 1 (Table 16) as M9 Minimal Media could not sustain growth of E. coli isolates from subject E. coli 2 (isolates 2a-2o) or P. mirabilis isolates (isolates 3a-3c) from subject E. coli 3. […] This phenotype is consistent with a mutation in the editing site of LeuRS, which could also be responsible for the concomitant decrease in susceptibility to GSK2251052 observed in isolates from Days 2, 3 and 4 (Table 16).

[2] = system: E. coli ATCC 25922 wild type and mutants; assay: MIC in M9 minimal media; conditions: Escherichia coli, read-out: MICs in M9 minimal media
Description: (§1) Spontaneous Resistance Frequency was determined in vitro for GSK2251052 and the resistance mutants in E. coli ATCC 25922, K. pneumoniae ATCC 13883, and P. aeruginosa ATCC 27853 strains were characterized. GSK2251052 was prepared as described in U.S. Pat. No. 7,816,344 (the entire contents of which are hereby incorporated by reference herein). LB broth, Mueller Hinton II broth (adjusted), and Difco noble agar were obtained from Becton Dickinson (Cockeysville, Md., USA). M9 minimal broth containing 1×M9 salt, 0.5 μg/ML thiamine, 1 mM MgSO4, 0.1 mM CaCl2, 2% glucose, was obtained from Teknova (Hollister, Calif., USA). Antibacterial agents ciprofloxacin, ceftazidime, chloramphenicol, gentamycin, kanamycin, polymixin B, tobramycin and trimethoprim, and amino acids were obtained from Sigma Chemicals (St. Louis, Mo., USA). Strains were obtained from ATCC (Manassas, Va., USA).
(§2) Susceptibility tests were performed following the recommendations for aerobic bacteria (M7-A7) from the Clinical and Laboratories Standards Institute (CLSI).
(§3) The aminoacyl-tRNA synthetase enzyme, LeuRS, ensures the correct amino acid, leucine, is attached to tRNA^Leu. The LeuRS synthetic active site is capable of aminoacylating tRNA^Leu with amino acids structural similar to leucine (norvaline, norleucine, isoleucine and methionine). These mischarged tRNA^Leu are hydrolyzed by the editing domain, thus preventing the deleterious incorporation of incorrect amino acids into the growing polypeptide. The laboratory generated mutants were further tested for their ability to grow in defined media with exogenously added amino acids. Norvaline and norleucine, structurally similar to leucine, were tested in M9 minimal media. […]

[3] = system: P. aeruginosa ATCC 27853 wild type and mutants; assay: MIC in M9 minimal media; conditions: Pseudomonas aeruginosa, read-out: MICs in M9 minimal media
Description: as §1, §2, §3

[4] = system: K. pneumoniae ATCC 13883 wild type and mutants; assay: MIC in M9 minimal media; conditions: Klebsiella pneumoniae, read-out: MICs in M9 minimal media
Description: as §1, §2, §3

[5] = system: P. aeruginosa ATCC 27853, E. coli ATCC 25922 and K. pneumoniae ATCC 13883; assay: MIC in M9 minimal media, three strains summarised; conditions: all GSK2251052 resistant mutants
Description: as §1, §2
The aminoacyl-tRNA synthetase enzyme, LeuRS, ensures the correct amino acid, leucine, is attached to tRNA^Leu. The LeuRS synthetic active site is capable of aminoacylating tRNA^Leu with amino acids structural similar to leucine (norvaline, norleucine, isoleucine and methionine). […]

[6] = system: Escherichia coli 1161435 parent and mutant strains B4, B26 and B35; assay: Sensitivity to leucine analogs in MH and M9 media
[7] = system: E. coli; assay: Inhibition of bacterial growth on agar plates; conditions: preliminary studies

SMILES: CCC[C@H](N)C(=O)O [Norvaline, L-Norvaline]
- MIC ([1]; 24 h, Isolate 1a, Blood, Day 1, read-out: MIC in M9 Minimal Media): 4 µg/mL (≈ 34.1 µM)
- MIC ([1]; 24 h, Isolate 1b, Urine, Day 1, read-out: MIC in M9 Minimal Media): 2 µg/mL (≈ 17.1 µM)
- MIC ([1]; 24 h, subject E. Coli 1, day 1, first line, no LeuRS change, read-out: Norvaline MIC in M9): 4 µg/mL (≈ 34.1 µM)
- MIC ([1]; 24 h, subject E. Coli 1, day 1, second line, no LeuRS change, read-out: Norvaline MIC in M9): 2 µg/mL (≈ 17.1 µM)
- MIC ([1]; 48 h, Isolate 1c, Blood, Day 2, read-out: MIC in M9 Minimal Media): 0.5 µg/mL (≈ 4.27 µM)
- MIC ([1]; 72 h, read-out: Norvaline MIC in M9): 0.5 µg/mL (≈ 4.27 µM)
- MIC ([1]; 96 h, Isolate 1e, Blood, Day 4, read-out: MIC in M9 Minimal Media): 0.5 µg/mL (≈ 4.27 µM)
- MIC ([1]; Isolate 1d, Blood, Day 3, read-out: MIC in M9 Minimal Media): 0.5 µg/mL (≈ 4.27 µM)
- MIC ([2]; ATCC25922, E 101(leuRS Y246H)): 4 µg/mL (≈ 34.1 µM)
- MIC ([2]; ATCC25922, E 102(leuRS D345G)): 0.5 µg/mL (≈ 4.27 µM)
- MIC ([2]; ATCC25922, E 107(leuRS G229S)): 1 µg/mL (≈ 8.54 µM)
- MIC ([2]; ATCC25922, E. coli ATCC25922): 32 µg/mL (≈ 273 µM)
- MIC ([3]; ATCC27853, P 101 (leuRS T256P)): 4 µg/mL (≈ 34.1 µM)
- MIC ([3]; ATCC27853, P 106 (leuRS V342M)): 0.25 µg/mL (≈ 2.13 µM)
- MIC ([3]; ATCC27853, P 108 (leuRS T252P)): 0.25 µg/mL (≈ 2.13 µM)
- MIC ([3]; ATCC27853, P. aeruginosa ATCC27853): > 64 µg/mL
- MIC ([4]; ATCC13883, K 104(leuRS D345Y)): 1 µg/mL (≈ 8.54 µM)
- MIC ([4]; ATCC13883, K 105(leuRS G229R)): 4 µg/mL (≈ 34.1 µM)
- MIC ([4]; ATCC13883, K 107(leuRS S227F)): 4 µg/mL (≈ 34.1 µM)
- MIC ([4]; ATCC13883, K 108(leuRS T248P)): 2 µg/mL (≈ 17.1 µM)
- MIC ([4]; ATCC13883, K 110(leuRS V338L)): 4 µg/mL (≈ 34.1 µM)
- MIC ([4]; ATCC13883, Klebsiella pneumoniae ATCC13883): 16 µg/mL (≈ 137 µM)
- sensitivity of the resistant mutants [5]: High sensitivity
- MIC (sensitivity to leucine analogs) ([6]; 1161435 Parent, M9): > 128 µg/mL
- MIC (sensitivity to leucine analogs) ([6]; 1161435 Parent, MH): > 128 µg/mL
- MIC (sensitivity to leucine analogs) ([6]; B4 (P339L), M9): 2 µg/mL
- MIC (sensitivity to leucine analogs) ([6]; B4 (P339L), MH): > 128 µg/mL
- MIC (sensitivity to leucine analogs) ([6]; B26 (R334H), M9): 16 µg/mL
- MIC (sensitivity to leucine analogs) ([6]; B26 (R334H), MH): > 128 µg/mL
- MIC (sensitivity to leucine analogs) ([6]; B35 (D251N), M9): 64 µg/mL
- MIC (sensitivity to leucine analogs) ([6]; B35 (D251N), MH): > 128 µg/mL
- sensitivity of the mutants ([6]; mutant strains in M9 minimal media): most sensitivity
- concentration at which a bacterial lawn could still be observed [7]: > 64 µg/mL
